Test results taken from the supplement of paper PMC10307832.

Legend:
Test in all cases: relative viability (nuclei count vs DMSO), 5 days (fraction); higher = more cells survive
[1] = compound: CC(C)(C)c1cc(NC(=O)Nc2ccc(-c3cn4c(n3)sc3cc(OCCN5CCOCC5)ccc34)cc2)no1 [Quizartinib] + N=C(N)NC(=N)NCCc1ccccc1 [Phenformin] (partner 250 µM)
Procedure, shortened: (§1)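 Relative viability is defined as nuclei in treated wells over nuclei in vehicle wells. Duplicate plates were run and medians reported. Lung cancer cell lines in 1536-well plates were dosed by pin tool one day after seeding, with one drug or with a fixed anchor-drug dose plus five library-drug doses (not always all listed) in √10 steps, and nuclei were counted after 5 days.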

[2] = compound: COCC[n+]1c2c(n(Cc3cnccn3)c1C)C(=O)c1ccccc1C2=O [YM155] + CCNC(=O)c1noc(-c2cc(C(C)C)c(O)cc2O)c1-c1ccc(CN2CCOCC2)cc1 [Luminespib] (partner 0.01 µM)
Procedure, shortened: as §1

[3] = compound: COCC[n+]1c2c(n(Cc3cnccn3)c1C)C(=O)c1ccccc1C2=O [YM155] + Cc1nc(NC(=O)N2CCC[C@H]2C(N)=O)sc1-c1ccnc(C(C)(C)C(F)(F)F)c1 [Alpelisib] (partner 2 µM)
Procedure, shortened: as §1

[4] = compound: CC(C)(C)c1cc(NC(=O)Nc2ccc(-c3cn4c(n3)sc3cc(OCCN5CCOCC5)ccc34)cc2)no1 [Quizartinib] + CC1(C)CCC(c2ccc(Cl)cc2)=C(CN2CCN(c3ccc(C(=O)NS(=O)(=O)c4ccc(N[C@H](CCN5CCOCC5)CSc5ccccc5)c(S(=O)(=O)C(F)(F)F)c4)cc3)CC2)C1 [Navitoclax] (partner 0.5 µM)
Procedure, shortened: as §1

Cell Line	relative viability ([1]; first compound 0.001 µM)	relative viability ([1]; first compound 0.003162 µM)	relative viability ([1]; first compound 0.01 µM)	relative viability ([1]; first compound 0.03162 µM)	relative viability ([1]; first compound 0.1 µM)	relative viability ([2]; first compound 0.002 µM)	relative viability ([2]; first compound 0.006325 µM)	relative viability ([2]; first compound 0.02 µM)	relative viability ([2]; first compound 0.06325 µM)	relative viability ([3]; first compound 0.002 µM)	relative viability ([3]; first compound 0.006325 µM)	relative viability ([3]; first compound 0.02 µM)	relative viability ([3]; first compound 0.06325 µM)	relative viability ([4]; first compound 0.001 µM)	relative viability ([4]; first compound 0.003162 µM)	relative viability ([4]; first compound 0.01 µM)	relative viability ([4]; first compound 0.03162 µM)	relative viability ([4]; first compound 0.1 µM)
NCI-H647	0.463	0.591	0.569	0.453	0.514	0.151	0.148	0.162	0.106	0.989	1.11	1.09	0.901	0.77	1.11	1.17	1.04	1.2
H3255	0.38	0.31	0.383	0.346	0.354	0.752	0.949	0.948	1.02	0.707	0.658	0.714	0.682	0.523	0.442	0.531	0.661	0.468
NCI-H2405	0.42	0.414	0.402	0.407	0.383	0.65	0.778	0.639	0.393	0.826	0.593	0.826	0.345	0.912	0.858	0.942	0.784	1.15
NCI-H1666	0.581	0.433	0.569	0.568	0.54	1.01	1.07	1.02	0.852	0.822	–	1.11	0.844	0.773	0.949	1.06	0.743	0.866
COR-L23	0.419	0.389	0.476	0.37	0.322	0.562	0.378	0.16	0.115	0.646	0.671	0.449	0.154	1.01	0.968	1.02	0.875	1.03
NCI-H1734	0.3	0.338	0.48	0.391	0.387	0.242	0.202	0.23	0.174	0.63	0.658	0.697	0.776	0.741	0.794	0.888	0.788	0.849
UMC-11	–	0.255	0.307	0.268	0.212	0.932	1.08	1	1.11	1.03	1.06	1	1.08	0.271	0.278	0.364	0.346	0.307
NCI-H596	0.834	0.681	0.712	0.667	0.714	1.06	1.02	0.924	1.27	–	0.514	0.499	0.49	0.931	0.885	0.985	0.883	0.864
